From US20210127709A1, “FEED ADDITIVE COMPRISING A TRP MODULATOR” (PerformaNat GmbH, priority 2018, published 2021)

Tested on: ruminal epithelium
Test: Ussing chamber: transepithelial current and conductance
Type: cell-based
Conditions: sheep ruminal epithelium, mucosal addition, short-circuit mode, 37° C.
Source text: All sheep were slaughtered in accordance with German laws for the protection of animals. Removal of tissue occurred directly after death, was stripped and transported to the laboratory in a warm and gassed transport buffer.
The tissue was mounted into conventional Ussing chambers with an exposure area of 3.14 cm^2 (as described in (Martens and Gabel, 1988, Transport of Na and Cl across the epithelium of ruminant forestomachs: rumen and omasum. A review. Comparative Biochemistry and Physiology Part A: Physiology 90, 569-575)). The chambers contained 16 ml of mucosal and serosal buffer, which was circulated with a gas lift system and warmed to 37° C. with a water jacket.
After ten minutes the chambers were clamped to short circuit mode (Mussler Scientific Instruments, Aachen, Germany). Transepithelial current (Isc) and conductance (Gt) were measured continuously.
After an equilibration time of about 30 min under short-circuit conditions, the Ussing chambers were divided into two groups, depending on the transepithelial conductance of the tissues inside the chambers. Group 1 (TRP-group) and Group 2 (TRP-PG-group.)
Depending on the group 4.8 μl of TRP agonist combined with propylene glycol or 2.4 mg of TRP Agonist was added to the mucosal side of the tissues. Transepithelial current (Isc) and transepithelial conductance (Gt) were measured continuously. […]

## CC1CCC(C(C)C)C(O)C1 (centres unmarked) [TRP (menthol), menthol]
  Transepithelial conductance (Gt), maximum increase after addition, mean: +0.563
  Transepithelial current (Isc), maximum increase after addition, mean: +0.727
